Tests used:
[1] = system: proteolytic enzymes; details: prior art; cited from earlier work
[2] = Acute toxicity by intraperitoneal administration in mice; details: mouse, in vivo, ip, read-out: DL50 (acute toxicity)
[3] = target: Human Plasma Kallikrein (Homo sapiens, UniProt P03952); assay: Inhibitory effect on ester-hydrolyzing activity of human plasma kallikrein (TAMe substrate); type: biochemical; details: read-out: percent inhibition at 10^-3 M (kallikrein)
Experimental: (A) Determination of Enzyme-inhibitory Activity: The enzyme-inhibitory activities in vitro of the compounds of this invention were measured by the following procedure according to the method of M. Muramatsu et al. [[…]. Makino, Y. Hayashi and S. Fujii: J.

[4] = target: Bovine Thrombin (Bos taurus, UniProt P00735); assay: Inhibitory effect on ester-hydrolyzing activity of bovine thrombin (TAMe substrate); type: biochemical; details: read-out: percent inhibition at 10^-3 M (thrombin)
Experimental: (4) Inhibitory Effect on Ester-Hydrolyzing Activity of Bovine Thrombin
It was measured by using 0.4 ml of bovine thrombin […], 0.02 M sodium phosphate buffer solution (pH 7.4) and TAMe as substrate following the method described in (1).

[5] = target: T1, Human Cl Esterase (Homo sapiens, UniProt P09871); assay: Inhibitory effect on ester-hydrolyzing activity of human Cl esterase (ATEe substrate); type: biochemical; details: in vitro; acetyltyrosine ethyl ester hydrolysis; read-out: ID50 (Cl esterase)
T1 sequence (P09871 438-688 limits assumed): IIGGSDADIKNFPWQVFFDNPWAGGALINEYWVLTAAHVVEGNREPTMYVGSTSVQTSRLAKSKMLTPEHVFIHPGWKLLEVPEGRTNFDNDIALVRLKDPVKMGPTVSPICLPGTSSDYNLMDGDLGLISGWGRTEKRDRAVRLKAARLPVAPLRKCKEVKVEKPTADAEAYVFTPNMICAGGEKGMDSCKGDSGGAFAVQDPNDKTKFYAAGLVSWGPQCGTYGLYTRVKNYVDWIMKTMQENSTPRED
T1 sequence (P09871 16-437 partner limits assumed): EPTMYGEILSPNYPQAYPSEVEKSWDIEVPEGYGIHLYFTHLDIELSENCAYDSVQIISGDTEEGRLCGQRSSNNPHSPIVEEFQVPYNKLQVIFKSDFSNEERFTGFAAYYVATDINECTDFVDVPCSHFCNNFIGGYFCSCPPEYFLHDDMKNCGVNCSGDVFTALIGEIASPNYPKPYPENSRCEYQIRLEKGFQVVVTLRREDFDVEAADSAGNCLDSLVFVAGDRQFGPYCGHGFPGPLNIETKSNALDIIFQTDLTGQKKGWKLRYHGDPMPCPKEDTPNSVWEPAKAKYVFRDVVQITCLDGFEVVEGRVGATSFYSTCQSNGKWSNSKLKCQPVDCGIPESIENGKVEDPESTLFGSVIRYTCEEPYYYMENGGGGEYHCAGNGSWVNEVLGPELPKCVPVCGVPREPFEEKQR
Experimental: It was measured by using 0.1 ml of Cl esterase, 0.1 ml of 0.02 M sodium phosphate buffer solution (pH 7.4) and 10 μmoles of ATEe (acetyltyrosine ethyl ester) as substrate following the method described in (1).

[6] = target: T2, Trypsin (Bos taurus, UniProt P00760); assay: Inhibitory effect on ester-hydrolyzing activity of trypsin (TAMe substrate); type: biochemical; details: read-out: percent inhibition at 10^-3 M (trypsin)
T2 sequence (P00760 24-246): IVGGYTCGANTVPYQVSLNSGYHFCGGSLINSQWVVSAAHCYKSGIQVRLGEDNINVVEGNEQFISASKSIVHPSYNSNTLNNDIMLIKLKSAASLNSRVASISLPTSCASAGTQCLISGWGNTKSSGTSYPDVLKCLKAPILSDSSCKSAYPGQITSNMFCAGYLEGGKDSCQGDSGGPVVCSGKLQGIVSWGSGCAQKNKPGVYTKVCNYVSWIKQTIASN
Experimental: (A) Determination of Enzyme-inhibitory Activity: The enzyme-inhibitory activities in vitro of the compounds of this invention were measured by the following procedure according to the method of M. Muramatsu et al. [[…]. Makino, Y. Hayashi and S. Fujii: J. […] Then, 10 μmoles of the substrate, TAMe (tosylarginine methyl ester), was added, and incubation was performed at 37° C. for 30 minutes. After the incubation, 1.5 ml of 2 M alkaline hydroxylamine was added and thoroughly mixed, and allowed to stand at room temperature for 15 minutes.

[7] = system: Rat Masugi Nephritis; assay: Effect on rat Masugi nephritis (urinary protein); type: in vivo, Sprague-Dawley rats
Experimental: (D) Effect on Masugi Nephritis: The effect of Compound No. 73 on Masugi nephritis was investigated according to the method of Shibata et al. [S. Shibata: Men-ekigaku, Arerugi-gaku Jikkenho (Immunology, Experimental Methods in Allergology), p. 664, (1971), Bunkodo, Tokyo]. Male sprague-Dawley rats weighing about 200 g were divided into normal group, diseased group and treated group, each consisting of 7 rats. For the purpose of inducing nephritis, 0.5 ml of anti- "rat nephritis" rabbit serum, which had been prepared according to the method of Shibata et al., was administered intravenously to rats of both diseased and treated groups. To the normal group was intravenously administered the same quantity of physiological saline. The test drug was administered intraperitoneally to rats of the treated group three times, namely two days prior to, one day prior to and on the day of administration of the antiserum. From the rats of each group, a 24 hours urine specimen was collected on the day preceding, and the 1st, 2nd, 5th, 8th and 13th days following the administration of the antiserum. Protein contents of the urine specimen were determined by the sulfosalicylic acid method.

[8] = system: complement-dependent hemolysis of sensitized erythrocytes; assay: Antihemolytic activity (prevention of complement-dependent hemolysis); type: cell-based; details: Erythrocyte, 10 min; for inhibition at 100 µM: 10^-4 M
Experimental: (C) Determination of Antihemolytic Activity: Preventions of the complement-dependent hemolysis by the compounds of this invention were measured according to the method of B. R. Baker et al. [J. Med. Chem., 12, 408-414 (1969)] by the following procedure: […] The mixture was incubated at 37° C. for 10 minutes. The reaction was stopped by adding 2.7 ml of an ice-cold citrate-saline solution, and the resulting mixture was centrifuged at 3000 rpm for 3 minutes. Absorbance of the supernatant was measured at 541 nm. As the standard, GVB^2+ (gelatin veronal buffer) was substituted for the sample solution and, as the control, GVB^2+ was substituted for the complement.

[9] = target: Human Plasmin (Homo sapiens, UniProt P00747); assay: Inhibitory effect on ester-hydrolyzing activity of human plasmin (TAMe substrate); type: biochemical; details: read-out: percent inhibition at 10^-3 M (plasmin)
Human Plasmin, sequence (P00747 581-810 limits assumed): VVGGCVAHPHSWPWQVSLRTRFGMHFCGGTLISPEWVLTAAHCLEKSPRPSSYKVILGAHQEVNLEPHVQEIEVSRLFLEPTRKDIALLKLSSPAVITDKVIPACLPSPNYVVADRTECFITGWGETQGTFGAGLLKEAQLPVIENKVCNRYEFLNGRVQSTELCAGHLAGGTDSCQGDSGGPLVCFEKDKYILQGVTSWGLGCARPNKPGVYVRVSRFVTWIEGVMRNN
Human Plasmin, sequence (P00747 97-580 partner limits assumed): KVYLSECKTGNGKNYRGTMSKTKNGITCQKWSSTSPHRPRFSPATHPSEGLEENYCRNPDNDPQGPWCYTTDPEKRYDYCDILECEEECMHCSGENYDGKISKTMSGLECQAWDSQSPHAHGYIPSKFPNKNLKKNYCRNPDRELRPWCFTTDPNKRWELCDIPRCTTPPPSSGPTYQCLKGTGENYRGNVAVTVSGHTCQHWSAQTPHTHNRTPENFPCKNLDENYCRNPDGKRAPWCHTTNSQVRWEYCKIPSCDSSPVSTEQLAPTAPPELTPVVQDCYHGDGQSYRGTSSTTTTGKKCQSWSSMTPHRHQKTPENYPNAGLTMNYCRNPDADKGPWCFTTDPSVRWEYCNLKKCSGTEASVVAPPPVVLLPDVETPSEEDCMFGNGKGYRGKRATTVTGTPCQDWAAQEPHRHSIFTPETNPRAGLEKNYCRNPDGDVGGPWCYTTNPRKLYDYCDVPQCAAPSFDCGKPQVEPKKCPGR
Experimental: (A) Determination of Enzyme-inhibitory Activity: The enzyme-inhibitory activities in vitro of the compounds of this invention were measured by the following procedure according to the method of M. Muramatsu et al. [[…]. Makino, Y. Hayashi and S. Fujii: J. […] (2) Inhibitory Effect on Ester-hydrolyzing Activity of Human Plasmin It was measured by using 0.1 ml of plasmin (generated by activation of plasminogen with streptokinase) and TAMe as substrate following the method described in (1).

Human Plasma Kallikrein, sequence (P03952 391-638 limits assumed): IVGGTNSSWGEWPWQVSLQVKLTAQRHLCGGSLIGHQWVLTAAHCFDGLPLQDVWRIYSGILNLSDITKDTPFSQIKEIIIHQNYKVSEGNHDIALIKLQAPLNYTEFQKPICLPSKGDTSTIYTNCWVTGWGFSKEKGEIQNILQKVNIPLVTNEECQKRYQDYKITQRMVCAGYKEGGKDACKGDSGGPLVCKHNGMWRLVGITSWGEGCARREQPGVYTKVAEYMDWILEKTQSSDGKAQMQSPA
Human Plasma Kallikrein, sequence (P03952 20-390 partner limits assumed): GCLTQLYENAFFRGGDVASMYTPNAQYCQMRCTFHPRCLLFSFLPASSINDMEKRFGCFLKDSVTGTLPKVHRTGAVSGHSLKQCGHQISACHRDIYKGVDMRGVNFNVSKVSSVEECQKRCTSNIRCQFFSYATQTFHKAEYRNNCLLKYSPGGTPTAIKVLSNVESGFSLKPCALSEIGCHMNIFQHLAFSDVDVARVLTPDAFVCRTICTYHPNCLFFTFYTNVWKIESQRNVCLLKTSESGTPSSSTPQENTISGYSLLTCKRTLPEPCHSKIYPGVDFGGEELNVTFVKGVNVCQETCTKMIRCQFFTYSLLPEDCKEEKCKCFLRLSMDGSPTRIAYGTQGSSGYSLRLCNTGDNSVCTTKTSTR

Compound	inhibitory activity to proteolytic enzymes [1]	specificity of enzyme inhibition [1]	inhibition at 1000 µM [3] [%]	inhibition at 1000 µM [4] [%]	IC50 [5] [µM]	inhibition at 1000 µM [6] [%]	inhibition at 100 µM [8] [%]	inhibition at 1000 µM [9] [%]	other results
N=C(N)c1ccc(CC(=O)C(=O)O)cc1 [4-amidinophenylpyruvic acid]	inhibitory activity to proteolytic enzymes	low in specificity							
CCC(Cc1ccc(NC(=N)N)cc1)C(=O)Oc1ccccc1 (stereo not drawn) [Compound No. 73, phenyl α-ethylβ-(p-guanidinophenyl)-propionate]			31.5	< 10	310	43.9	30	< 10	LD50 [2]: 129 mg/kg; Protein in urine ([7]; 12.5 mg/kg i.p. x3, day 1 after antiserum): 34.0 mg/day; Protein in urine ([7]; 12.5 mg/kg i.p. x3, day 2 after antiserum): 42.5 mg/day; Protein in urine ([7]; 12.5 mg/kg i.p. x3, day 5 after antiserum): 45.6 mg/day; Protein in urine ([7]; 12.5 mg/kg i.p. x3, day 8 after antiserum): 76.3 mg/day; Protein in urine ([7]; 12.5 mg/kg i.p. x3, day 13 after antiserum): 115.5 mg/day; Protein in urine ([7]; 12.5 mg/kg i.p. x3, day -1): 6.0 mg/day; Protein in urine ([7]; 25.0 mg/kg i.p. x3, day 1 after antiserum): 41.1 mg/day; Protein in urine ([7]; 25.0 mg/kg i.p. x3, day 2 after antiserum): 33.9 mg/day; Protein in urine ([7]; 25.0 mg/kg i.p. x3, day 5 after antiserum): 39.4 mg/day; Protein in urine ([7]; 25.0 mg/kg i.p. x3, day 8 after antiserum): 63.3 mg/day; Protein in urine ([7]; 25.0 mg/kg i.p. x3, day 13 after antiserum): 71.5 mg/day; Protein in urine ([7]; 25.0 mg/kg i.p. x3, day -1): 4.2 mg/day; inhibition at 1000 µM ([8]; 10^-3 M): 69.1%
CCOC(=O)c1ccc(OC(=O)CCCCCNC(=N)N)cc1.CS(=O)(=O)O [FOY, ethyl p-(6-guanidinohexanoyloxy)benzoate methanesulfonate]	inhibitory activity to proteolytic enzymes	low in specificity							
CC(Cc1ccc(NC(=N)N)cc1)C(=O)Oc1cccc2ccccc12 (stereo not drawn) [compound 54, 1-naphthyl α-methyl-β-(p-guanidinophenyl)-propionate]							49.3		
CCCC(Cc1cccc(NC(=N)N)c1)C(=O)Oc1ccccc1 (stereo not drawn) [compound 68, phenyl α-n-propyl-β-(m-guanidinophenyl)-propionate]			17.6	< 10	430	< 10	30	22	
CCOC(=O)c1ccc(OC(=O)C(CC)Cc2ccc(NC(=N)N)cc2)cc1 (stereo not drawn) [compound 76, p-ethoxycarbonylphenylα-ethyl-β-(p-guanidinophenyl)-propionate]							33		

Reference: patent publication US4182897A, “Amino- or guanidino-phenylpropionic acid derivatives” (Torii & Co., Ltd., priority 1977, dated 1980)
